Laboratory results published in patent US10800789B2, “Antiviral compounds” (Gilead Pharmasset LLC, priority 2012, dated 2020).
Read-outs that look alike come from different tables or passages of the source.

How the values were obtained:
[1] = system: stable HCV 2a JFH-1 Rluc replicon cells (L31 present in NS5A); test: Renilla luciferase HCV replicon reporter assay, genotype 2a JFH-1; type: cell-based; conditions: Hepatitis C virus
Outline: (§1)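 72 h compound exposure (3-fold dilutions from 10 mM DMSO stocks) of replicon cells: stable dicistronic RLuc 1a H77, 1b Con1, 2a JFH-1 (NS5A L31); J6-NS5A chimera in JFH-1 (M31), transient in Huh-Lunet or stable. Renilla luciferase read-out, non-linear regression → EC50. DMSO negative control.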

[2] = system: NS5A chimeric genotype 2a JFH-1 replicon with genotype 2a J6 strain NS5A gene (M31 present); test: Replicon assay, genotype 2a J6 NS5A chimera; type: cell-based, HCV; conditions: Hepatitis C virus
Outline: as §1

[3] = system: NS5A chimeric genotype 1b Con1 replicon with genotype 3a S52 strain NS5A gene; test: Replicon assay, genotype 3a NS5A chimera; type: cell-based, HCV; conditions: Hepatitis C virus
[4] = system: stable HCV 1b RLuc replicon cells (dicistronic genotype 1b Con1 replicon); test: Renilla luciferase HCV replicon reporter assay, genotype 1b; type: cell-based; conditions: Hepatitis C virus, 72 h, stable 1b Con1 RLuc replicon cells, 72 hours; read-out: 1b
Outline: as §1

[5] = system: NS5A chimeric genotype 1b Con1 replicon with genotype 4a ED43 strain NS5A gene; test: Replicon assay, genotype 4a NS5A chimera; type: cell-based, HCV; conditions: Hepatitis C virus
[6] = system: stable HCV 1a RLuc replicon cells (dicistronic genotype 1a H77 replicon); test: Renilla luciferase HCV replicon reporter assay, genotype 1a; type: cell-based; conditions: Hepatitis C virus, 72 h, stable 1a H77 RLuc replicon cells
Outline: as §1

[7] = system: NS5A chimeric genotype 2a JFH-1 replicon with genotype 2b MD2b-1 strain NS5A gene (M31 present); test: Replicon assay, genotype 2b NS5A chimera; type: cell-based, HCV; conditions: Hepatitis C virus
Outline: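 EC50 was fitted by non-linear regression to Renilla luciferase signal after 72 h of exposure to 3-fold serially diluted compound (10 mM DMSO stocks). Controls were DMSO (none) and ITMN-191 above 100×EC50 (full). Chimeric 2a replicons were used either stable or transiently transfected into Huh-Lunet cells.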

[8] = IV and PO single dose pharmacokinetic studies in SD rats; type: in vivo, male Sprague-Dawley (SD) rats; conditions: Sprague-Dawley, rat, plasma, male SD rats, PO 2 mg/kg vs IV infusion 1 mg/kg, read-out: Rat % F
Protocol: IV and PO Single Dose Pharmacokinetic Studies in SD Rats:
The pharmacokinetics of selected compounds was characterized in male Sprague-Dawley (SD) rats (250-300g). In this study, two groups of naïve purebred SD rats (N=3 per group, fasted over night) received the selected compound either as an intravenous (IV) infusion (1 mg/kg over 30 minutes) via the jugular vein or by oral gavage (2 mg/kg). The intravenous (IV) dosing vehicle was 5% ethanol, 35% polyethylene glycol 400 (PEG 400) and 60% water pH 2.0. The oral dosing vehicle was 5% ethanol, 55% PEG 400 and 40% citrate buffer pH 2.2.
Serial blood samples (approximately 0.3 mL each) were collected from jugular vein or other suitable vein at specified time points. For the IV infusion group, the blood samples were collected predose and at 0.25, 0.48, 0.58, 0.75, 1.5, 3, 6, 8, 12 and 24 hours after the start of infusion. For the oral group, the blood samples were collected predose and at 0.25, 0.50, 1, 2, 4, 6, 8, 12 and 24 hours after dosing. The blood samples were collected into VacutainerγM tubes containing EDTA-K3 as the anti-coagulant and were centrifuged at approximately 4° C. to obtain plasma. The plasma samples were stored at −20° C. until analysis by LC/MS/MS.
A bioanalytical method utilizing high performance liquid chromatography coupled to tandem mass spectrometry (LC/MS/MS) was developed for analysis of the selected compound in rat plasma. Detection was performed using selected reaction monitoring (SRM); Ions representing the precursor (M+H)^+ species was selected in quadrupole 1 (Q1) and collided with argon gas in the collision cell (Q2) to generate specific product ion, which was subsequently monitored by quadrupole 3 (Q3). Standard curve and quality control samples were prepared in male rat plasma and processed in the same way as the test samples to generate quantitative data.
Pharmacokinetic parameters were generated using non-compartmental pharmacokinetic analysis (Phoenix WinNonlin, version 6.3). Values below the lower limit of quantification (LLOQ) were assigned a value of zero if predose and treated as missing thereafter. Area under the curve (AUC) was calculated using the linear trapezoidal rule. The oral bioavailability (% F) was determined by comparison of the area under the curve (AUC) of the compound and/or a metabolite generated in plasma following oral administration to that generated following intravenous administration.

[9] = read-out: 2a JFH (nM), genotype 2a JFH-1 replicon (L31 in NS5A), stable cells
[10] = read-out: 2a JFH, stable 2a JFH-1 Rluc replicon cells, L31 in NS5A, activity range
[11] = read-out: 2a J6 (t) (nM), genotype 2a J6 NS5A chimeric replicon (M31), transiently transfected (t) into Huh-Lunet cells
[12] = read-out: 2a J6 (t), transiently transfected (t) into Huh-Lunet cells, activity range
[13] = read-out: 3a (s) (nM), genotype 3a NS5A chimeric replicon, stable replicon cells (s)
[14] = read-out: 3a (s), (s), activity range
[15] = read-out: 4a (s) (nM), genotype 4a NS5A chimeric replicon, stable replicon cells (s)
[16] = read-out: 4a (s), (s), activity range
[17] = 2BS, read-out: 2b (s), stably replicating replicon cells (s), activity range
[18] = read-out: 2b (s) (nM), genotype 2b MD2b-1 NS5A chimeric replicon (M31), stably replicating replicon cells (s)
[19] = read-out: 2b (t) (nM), genotype 2b MD2b-1 NS5A chimeric replicon (M31), transiently transfected (t)
[20] = read-out: 2b (t), transiently transfected (t) into Huh-Lunet cells, activity range

## COC(=O)N[C@H](C(=O)N1C[C@@H](C)C[C@H]1c1nc2ccc3cc4c(cc3c2[nH]1)OCc1cc(-c2cnc([C@@H]3CC[C@H](C)N3C(=O)[C@@H](NC(=O)OC)[C@@H](C)OC)[nH]2)ccc1-4)[C@@H](C)OC [DY, Methyl [(2S,3R)-3-methoxy-1-{(2S,5S)-2-[9-(2-{(2S,5S)-1-[N-(methoxycarbonyl)-O-methyl-L-threonyl]-5-methylpyrrolidin-2-yl}-1H-imidazol-5-yl)-1,11-dihydroisochromeno[4′,3′:6,7]naphtho[1,2-d]imidazol-2-yl]-4-methylpyrrolidin-1-yl}-1-oxobutan-2-yl]carbamate]
[1]; [9]
  EC50: 0.028 nM
[1]; [10]
  EC50: < 0.1 nM
[2]; [11]
  EC50: 0.047 nM
[2]; [12]
  EC50: < 0.1 nM
[3]; [13]
  EC50: 0.13 nM
[3]; [14]
  EC50: 0.1 to 0.999 nM
[4]
  EC50: 65 pM
[5]; [15]
  EC50: 0.035 nM
[5]; [16]
  EC50: < 0.1 nM
[6]
  EC50: 44 pM
[6]; activity range
  EC50: < 100 pM
[7]; [17]
  EC50: 0.1 to 0.999 nM
[7]; [18]
  EC50: 0.199 nM
[7]; [19]
  EC50: 0.083 nM
[7]; [20]
  EC50: < 0.1 nM
[8]
  bioavailability: 8.3%

## COC(=O)NC(C(=O)N1[C@@H](C)CC[C@H]1c1nc2ccc3cc4c(cc3c2[nH]1)OCc1cc(-c2cnc([C@@H]3CC[C@H](C)N3C(=O)[C@@H](NC(=O)OC)C3CCOCC3)[nH]2)ccc1-4)C(C)C (stereo partly drawn) [EA, Methyl(1-{(2S,5S)-2-[9-(2-{(2S,5S)-1-[(2S)-2-[(methoxycarbonyl)amino]-2-(tetra hydro-2H-pyran-4-yl)acetyl]-5-methylpyrrolidin-2-yl}-1H-imidazol-5-yl)-1,11-dihydroisochromeno[4′,3′:6,7]naphtho[1,2-d]imidazol-2-yl]-5-methylpyrrolidin-1-yl}-3-methyl-1-oxobutan-2-yl)carbamate]
[1]; [9]
  EC50: 0.015 nM
[1]; [10]
  EC50: < 0.1 nM
[2]; [11]
  EC50: 0.035 nM
[2]; [12]
  EC50: < 0.1 nM
[3]; [13]
  EC50: 0.035 nM
[3]; [14]
  EC50: < 0.1 nM
[4]
  EC50: 28 pM
[5]; [15]
  EC50: 0.019 nM
[5]; [16]
  EC50: < 0.1 nM
[6]
  EC50: 18 pM
[6]; activity range
  EC50: < 100 pM
[7]; [17]
  EC50: < 0.1 nM
[7]; [18]
  EC50: 0.088 nM
[7]; [19]
  EC50: 0.037 nM
[7]; [20]
  EC50: < 0.1 nM
[8]
  bioavailability: 10.2%

## COC(=O)N[C@H](C(=O)N1[C@@H](C)CC[C@H]1c1ncc(-c2ccc3c(c2)COc2cc4c(ccc5nc([C@@H]6C[C@H](C)CN6C(=O)[C@@H](NC(=O)OC)C6CCOCC6)[nH]c54)cc2-3)[nH]1)C(C)C [EI, methyl[(1 S)-2-[(2S,4S)-2-(9-{2-[(2S,5S)-1-{(2S)-2-[(methoxycarbonyl)amino]-3-methylbutanoyl}-5-methylpyrrolidin-2-yl]-1H-imidazol-5-yl}-1,11 dihydroisochromeno[4′,3′:6,7]naphtho[1,2-d]imidazol-2-yl)-4-methylpyrrolidin-1-yl]-2-oxo-1-(tetra hydro-2H-pyran-4-yl)ethyl]carbamate]
[1]; [9]
  EC50: 0.033 nM
[1]; [10]
  EC50: < 0.1 nM
[2]; [11]
  EC50: 0.022 nM
[2]; [12]
  EC50: < 0.1 nM
[3]; [13]
  EC50: 0.077 nM
[3]; [14]
  EC50: < 0.1 nM
[3]; read-out: 3a (t) (nM), genotype 3a NS5A chimeric replicon, transiently transfected (t)
  EC50: 0.074 nM
[3]; read-out: 3a (t), transiently transfected (t) into Huh-Lunet cells, activity range
  EC50: < 0.1 nM
[4]
  EC50: 48 pM
[5]; [15]
  EC50: 0.02 nM
[5]; [16]
  EC50: < 0.1 nM
[6]
  EC50: 25 pM
[6]; activity range
  EC50: < 100 pM
[7]; [17]
  EC50: < 0.1 nM
[7]; [18]
  EC50: 0.048 nM
[8]
  bioavailability: 4.4%

## CC[C@H]1CC[C@@H](c2nc3ccc4cc5c(cc4c3[nH]2)OCc2cc(-c3cnc([C@@H]4CC[C@H](C)N4C(=O)[C@@H](NC(=O)OC)C(C)C)[nH]3)ccc2-5)N1C(=O)[C@@H](NC(=O)OC)[C@@H](C)OC [EP, Methyl {(2S,3R)-1-[(2S,5S)-2-ethyl-5-(9-{2-[(2S,5S)-1-{(2S)-[(methoxycarbonyl)amino]-3-methylbutanoyl}-5-methylpyrrolidin-2-yl]-1H-imidazol-5-yl}-1,11-dihydroisochromeno[4′,3′:6,7]naphtho[1,2-d]imidazol-2-yl)pyrrolidin-1-yl]-3-methoxy-1l-oxobutan-2-yl}carbamate]
[1]; [9]
  EC50: 0.013 nM
[1]; [10]
  EC50: < 0.1 nM
[3]; [13]
  EC50: 0.115 nM
[3]; [14]
  EC50: 0.1 to 0.999 nM
[4]
  EC50: 24 pM
[6]
  EC50: 14 pM
[6]; activity range
  EC50: < 100 pM
[7]; [17]
  EC50: 0.1 to 0.999 nM
[7]; [18]
  EC50: 0.213 nM
[8]
  bioavailability: 17.5%

## COC(=O)N[C@H](C(=O)N1[C@@H](C)CC[C@H]1c1ncc(-c2ccc3c(c2)COc2cc4c(ccc5nc([C@@H]6CC[C@H](C)N6C(=O)[C@@H](NC(=O)OC)[C@@H](C)OC(F)F)[nH]c54)cc2-3)[nH]1)C(C)C [FM, Methyl {(2S)-1-[(2S,5S)-2-(5-{2-[(2S,5S)-1-{(2S,3R)-3-(difluoromethoxy)-2-[(methoxycarbonyl)amino]butanoyl}-5-methylpyrrolidin-2-yl]-1,11-dihydroisochromeno[4′,3′:6,7]naphtho[1,2-d]imidazol-9-yl}-1H-imidazol-2-yl)-5-methylpyrrolidin-1-yl]-3-methyl-1-oxobutan-2-yl}carbamate]
[1]; [9]
  EC50: 0.019 nM
[1]; [10]
  EC50: < 0.1 nM
[3]; [13]
  EC50: 0.061 nM
[3]; [14]
  EC50: < 0.1 nM
[4]
  EC50: 18 pM
[5]; [15]
  EC50: 0.007 nM
[5]; [16]
  EC50: < 0.1 nM
[6]
  EC50: 9 pM
[6]; activity range
  EC50: < 100 pM
[7]; [17]
  EC50: 0.1 to 0.999 nM
[7]; [18]
  EC50: 0.259 nM
[8]
  bioavailability: 22.7%

## CC[C@H](C)[C@H](NC(=O)OC)C(=O)N1[C@@H](C)CC[C@H]1c1ncc(-c2ccc3c(c2)COc2cc4c(ccc5nc([C@@H]6CC[C@H](C)N6C(=O)[C@@H](NC(=O)OC)[C@@H](C)OC)[nH]c54)cc2-3)[nH]1 [GF, Methyl {(2S,3S)-1-[(2S,5S)-2-(5-{2-[(2S,5S)-1-{(2S,3R)-3-methoxy-2-[(methoxycarbonyl)amino]butanoyl}-5-methylpyrrolidin-2-yl]-1,11-dihydroisochromeno[4′,3′:6,7]naphtho[1,2-d]imidazol-9-yl}-1H-imidazol-2-yl)-5-methylpyrrolidin-1-yl]-3-methyl-1-oxopentan-2-yl}carbamate]
[1]; [9]
  EC50: 0.018 nM
[1]; [10]
  EC50: < 0.1 nM
[3]; [13]
  EC50: 0.027 nM
[3]; [14]
  EC50: < 0.1 nM
[4]
  EC50: 15 pM
[5]; [15]
  EC50: 0.011 nM
[5]; [16]
  EC50: < 0.1 nM
[6]
  EC50: 7 pM
[6]; activity range
  EC50: < 100 pM
[7]; [17]
  EC50: 0.1 to 0.999 nM
[7]; [18]
  EC50: 0.203 nM
[8]
  bioavailability: 15.6%

## CC[C@H]1CC[C@@H](c2nc3ccc4cc5c(cc4c3[nH]2)OCc2cc(-c3cnc([C@@H]4CC[C@H](C)N4C(=O)[C@@H](NC(=O)OC)[C@@H](C)CC)[nH]3)ccc2-5)N1C(=O)[C@@H](NC(=O)OC)C1CCOCC1 [IK]
[1]; [9]
  EC50: 0.015 nM
[1]; [10]
  EC50: < 0.1 nM
[3]; [13]
  EC50: 0.155 nM
[3]; [14]
  EC50: 0.1 to 0.999 nM
[4]
  EC50: 38 pM
[5]; [15]
  EC50: 0.042 nM
[5]; [16]
  EC50: < 0.1 nM
[6]
  EC50: 39 pM
[6]; activity range
  EC50: < 100 pM
[7]; [17]
  EC50: 0.1 to 0.999 nM
[7]; [18]
  EC50: 0.181 nM
[8]
  bioavailability: 27.4%
